# Test results: patent US20120190723A1, “VIRAL MODULATORS AND PROCESSES THEREOF” (priority 2010, published 2012)
# pIC50: −log10 of the molar value. “Also recorded” adds a separate entry of the source. Where a name gives a salt, the structure may show the parent alone. Read-outs that look alike come from different tables or passages of the source. Starred links: 1 amine or outer side, 2 acyl side, 3 side chain; linkers in the order of their positions; H or OH if unused. Positions of bridges follow the written chain, without caps; N, C: chain ends. Non-standard residues stand in square brackets, D forms with d. Residues, ends and D or L forms follow the SMILES beside them. Chains are numbered I, II in the order given. Actinocin(9to1) = Cc1c2oc3c(C)ccc(C(=O)[*:1])c3nc-2c(C(=O)[*:2])c(N)c1=O; NMeV = CN[C@H](C(=O)O)C(C)C; Sar = CNCC(=O)O
# How the values were obtained:
# HIV-1 dual tropic 89.6 [1] = test: HIV-1 89.6 replication in primary monocyte/macrophages (RT assay); type: cell-based; conditions: Human immunodeficiency virus 1, Primary macrophage, 168 h; 89.6 infection, RT day 7
# survivin, BID = type: cell-based
# [2] = in vivo
# in vitro = conditions: human
# GSK-3β [3] = biological target: T1, GSK-3β (Homo sapiens, UniProt P49841); test: GSK-3β immunoprecipitation in vitro kinase assay (U937 cells)
# Target sequence in this assay (P49841 whole entry): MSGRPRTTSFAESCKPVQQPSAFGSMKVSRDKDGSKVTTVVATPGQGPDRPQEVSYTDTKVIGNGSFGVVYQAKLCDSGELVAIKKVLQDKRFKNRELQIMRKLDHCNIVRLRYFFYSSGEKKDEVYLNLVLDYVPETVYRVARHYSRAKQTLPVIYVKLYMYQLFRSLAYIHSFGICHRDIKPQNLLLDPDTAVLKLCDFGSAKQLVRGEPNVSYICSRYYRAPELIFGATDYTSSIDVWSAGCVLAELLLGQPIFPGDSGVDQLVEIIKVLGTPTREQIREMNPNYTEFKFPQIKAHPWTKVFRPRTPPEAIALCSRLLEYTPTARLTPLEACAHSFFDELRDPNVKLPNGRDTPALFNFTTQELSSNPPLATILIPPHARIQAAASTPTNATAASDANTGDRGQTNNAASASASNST
# [4] = test system: monocyte/macrophage from two healthy donors and U87MG; test: MTT toxicity in monocyte/macrophages and U87MG; type: cell-based; conditions: primary cells or cell line
# VEEV TC-83 [5] = type: in vivo, C3H/HeN mice; conditions: for survival rate: SQ days −1, 1, 3, 5, BIO 50 mg/kg, BIOder 20 mg/kg, 14 days, vehicle 10%; for survival differential: vs vehicle control
# [6] = test system: HIV-rtTA KWK (Tat+) and KYK (Tat−) clones; test: dox-dependent HIV-rtTA variants (KWK, KYK) in macrophages, RT assay; type: cell-based, HIV-1; conditions: BIOder 50 nM, dox 1000 ng/ml, RT day 10
# GSK-3β [7] = biological target: T1, GSK-3β; type: biochemical; parameters: Cells may be lysed and immunoprecipitated with control IgG and/or GSK-3β antibody; endogenous in cells
# Target sequence in this assay (P49841 whole entry, looked up): as the sequence (P49841 whole entry) above
# HIV-1 dual tropic 89.6 [8] = test: HIV-1 89.6 replication in U87MG cells (RT assay); type: cell-based; conditions: Human immunodeficiency virus 1, U-87 MG, 168 h; 89.6 infection, RT day 7
# U87MG astrocytes = conditions: for cellular viability of BIO analogs: 1 μM
# VEEV TC-83 [9] = test: microbe, parasite or virus in culture; type: cell-based; conditions: Venezuelan equine encephalitis virus, U-87 MG, read-out: IC50, VEEV replication
# VEEV TC-83 [10] = test: microbe, parasite or virus in culture; type: cell-based, Venezuelan Equine Encephalitis Virus; conditions: for effect on VEEV induced CPE: 1 μM, 48 hours post infection
# [11] = test system: Rat mixed hippocampal cultures exposed to Tat1-72; test: Tat neurotoxicity in rat mixed hippocampal cultures (MTT); type: cell-based; conditions: for protection against Tat mediated neurodegeneration: 1.0 and 3.0 uM, p<0.05, 500 nM Tat1-72, 18 hours; for neurotoxicity: 5.0 and 10.0 uM
# Experimental: After approximately 18 hours, cell survival may be measured by MTT assay. Statistical significance may be determined by ANOVA, followed by Newman-Keuls post hoc pair-wise comparisons.
# In some aspects of embodiments, rat mixed hippocampal cultures may be preincubated with BIO prior to exposure to Tat. Cell death may be analyzed approximately 18 hours after Tat exposure by MTT assay.
# [12] = test system: HIV-1 LTR Tat dependent transcription; test: cells; conditions: Human immunodeficiency virus 1, TZM-bl, read-out: % Inhibition at 1 μM
# VEEV TC-83 [13] = type: cell-based, Venezuelan Equine Encephalitis Virus; conditions: 1 μM
# [14] = test system: HIV-1 LTR Tat dependent transcription; conditions: TZM-bl cells transfected with Tat, compared to the DMSO control
compound,measurement,setting,value
"Cc1cc2c(cc1Br)NC(=O)/C2=N/N=C1/C(=O)Nc2cc(Br)c(C)cc21 [Compound 6, 6-bromo-5-methyl-1H-indole-2,3-dione 3-[(6-bromo-5-methyl-2-oxo-1,2-dihydro-3H-indol-3-ylidene)hydrazone]]",pIC50,HIV-1 dual tropic 89.6 [1],~8.40
same,BID expression,"survivin, BID",relatively strong decrease
same,survivin expression,"survivin, BID",relative increase in the expression of survivin
same,mouse weight,[2],substantially no treatment group showed weight loss
same,"signs of toxicity (lethargy, ruffling of coats, weight loss)",[2]; mouse,Substantially no signs of toxicity
same,CC50,in vitro,> 100000 nM
same,pIC50,GSK-3β [3],~10.52
same,inhibition of GSK-3β kinase activity,"GSK-3β [3]; at approximately 1 nM, glycogen synthase peptide 2 substrate",approximately 90%
same,Cytotoxic concentration (MTT),[4],> 10 µM
same,survival rate,VEEV TC-83 [5],approximately 50%
same,survival differential,VEEV TC-83 [5],approximately 40%
same,viral replication of KWK (Tat+) and KYK (Tat−) clones,[6],inhibited in the KWK (Tat+) and not KYK (Tat−) clone
same,GSK3-β kinase activity,GSK-3β [7],much more relatively dramatic influence
same,pIC50,HIV-1 dual tropic 89.6 [8],~9.30
same,cellular viability,U87MG astrocytes,no substantial effect on cellular viability
same,pIC50,VEEV TC-83 [9],~6.30
same,effect on VEEV induced CPE,VEEV TC-83 [10],inhibit CPE; also recorded: particularly strong inhibition
same,cellular viability of VEEV infected cells,"VEEV TC-83 [10]; 72 hours post-infection, all concentrations employed",relative increase in cellular viability
same,pIC50,"VEEV TC-83 [10]; Venezuelan equine encephalitis virus, U-87 MG, read-out: IC50 for inhibition of VEEV induced CPE",> 7.00
same,protection against Tat mediated neurodegeneration,[11],protective effect
same,neurotoxicity,[11],no neurotoxicity observed
"Cc1c2oc3c(C)ccc(C(=O)N[C@@H]4C(=O)N[C@H](C(C)C)C(=O)N5CCC[C@H]5C(=O)N(C)CC(=O)N(C)[C@@H](C(C)C)C(=O)O[C@@H]4C)c3nc-2c(C(=O)N[C@@H]2C(=O)N[C@H](C(C)C)C(=O)N3CCC[C@H]3C(=O)N(C)CC(=O)N(C)[C@@H](C(C)C)C(=O)O[C@@H]2C)c(N)c1=O [Dactiniomycin, Dactinomycin] (I: T[dV]P[Sar][NMeV] / II: T[dV]P[Sar][NMeV]; ester I:1-I:C, II:1-II:C; linker I:N-II:N via Actinocin(9to1))",inhibition at 1 µM,[12],98%
"Cc1[nH]c2ccc(Br)cc2c1CC(=O)N/N=C1/C(=O)Nc2ccccc21 [Compound 21, 2-(5-bromo-2-methyl-1H-indol-3-yl)-N′-(2-oxo-1,2-dihydro-3H-indol-3-ylidene)acetohydrazide]",effect on VEEV (FIG. 11),VEEV TC-83 [13],VEEV activators
"Cc1ccc2c(c1Br)/C(=N/NC(=O)Nc1ccccc1)C(=O)N2 [Compound 5, 4-bromo-5-methyl-1H-indole-2,3-dione 3-(N-phenylsemicarbazone)]",effect on VEEV induced CPE,VEEV TC-83 [10],increase observed CPE
"O=C1Nc2cc(Br)ccc2/C1=C1/Nc2ccccc2/C1=N\O [BIO, 6-bromoindirubin-3′-oxime, reference compound]",survivin expression,"survivin, BID",relatively increase survivin expression
same,survival rate,VEEV TC-83 [5],~30%
same,survival differential,VEEV TC-83 [5],approximately 20%
same,protection against Tat mediated neurodegeneration,[11],significant neuroprotective effects
same,neurotoxicity,[11],neurotoxicity observed
same,LD50 (neurotoxicity),[11]; rat mixed hippocampal cultures,approximately 4 uM
C=C[C@H]1CN2CC[C@H]1C[C@H]2[C@H](OC(=O)OCC)c1ccnc2ccc(OC)cc12 [Quinine ethyl carbonate],inhibition at 1 µM,[12],34%
"O=C1Nc2ccc(Cl)cc2/C1=C1\C(=O)Nc2ccc(Br)cc21 [Compound 34, 5-bromo-5′-chloro-3,3′-biindole-2,2′(1H,1′H)-dione]",cellular viability of BIO analogs,U87MG astrocytes,decrease in cellular viability
"O=C1Nc2ccc(Br)cc2/C1=N\NC(=O)c1ccccc1NC(=O)c1ccccc1 [Compound 31, N-(2-{[2-(5-bromo-2-oxo-1,2-dihydro-3H-indol-3-ylidene)hydrazino]carbonyl}phenyl)benzamide]",effect on VEEV induced CPE,VEEV TC-83 [10],inhibit CPE
"COc1ccc(-c2cc(C(=O)N/N=C3/C(=O)Nc4ccc(Br)cc43)[nH]n2)cc1 [Compound 28, N′-(5-bromo-2-oxo-1,2-dihydro-3H-indol-3-ylidene)-3-(4-methoxyphenyl)-1H-pyrazole-5-carbohydrazide]",effect on VEEV induced CPE,VEEV TC-83 [10],inhibit CPE
"Cc1cc(C(=O)N/N=C2\C(=O)Nc3ccc(Br)cc32)[nH]n1 [Compound 32, N′-(5-bromo-2-oxo-1,2-dihydro-3H-indol-3-ylidene)-3-methyl-1Hpyrazole-5-carbohydrazide]",cellular viability of BIO analogs,U87MG astrocytes,decrease in cellular viability
O=C1Nc2ccccc2/C1=C1/Nc2ccccc2/C1=N\O [Indirubin-3′-oxime],% Inhibition at 1 μM,[14],25%
"Cc1ccc2c(c1Br)C(=NNc1ccccc1)C(=O)N2 [Compound 17, 4-bromo-5-methyl-1H-indole-2,3-dione 3-(phenylhydrazone)]",effect on VEEV induced CPE,VEEV TC-83 [10],inhibit CPE
"O=C1Nc2c(Br)cc(Br)cc2/C1=N/NC(=O)c1cc(-c2ccccc2)n[nH]1 [Compound 24, N′-(5,7-dibromo-2-oxo-1,2-dihydro-3H-indol-3-ylidene)-3-phenyl-1Hpyrazole-5-carbohydrazide]",effect on VEEV induced CPE,VEEV TC-83 [10],increase observed CPE
"Cc1c(Cl)ccc2c1NC(=O)/C2=C1/C(=O)Nc2ccccc21 [Compound 38, 6-chloro-7-methyl-3,3′-biindole-2,2′(1H,1′H)-dione]",effect on VEEV (FIG. 11),VEEV TC-83 [13],VEEV activators
"O=C1NC(=O)/C(=C2/C(=O)Nc3ccc(Br)cc32)N1 [Compound 33, 5-(5-bromo-2-oxo-1,2-dihydro-3H-indol-3-ylidene)-2,4-imidazolidinedione]",cellular viability of BIO analogs,U87MG astrocytes,decrease in cellular viability
"O=C1Nc2ccc(Br)cc2/C1=N/NC(=O)c1ccc(Cl)cc1Cl [Compound 16, N′-(5-bromo-2-oxo-1,2-dihydro-3H-indol-3-ylidene)-2,4-dichlorobenzohydrazide]",cellular viability of BIO analogs,U87MG astrocytes,decrease in cellular viability
COc1cccc2c1C(=O)c1c(O)c3c(c(O)c1C2=O)C[C@@](O)(C(=O)CO)C[C@@H]3O[C@H]1C[C@H](N)[C@@H](O)[C@H](C)O1 [Epirubicin hydrochloride],inhibition at 1 µM,[12],17%
"Cc1ccc2c(c1Br)/C(=N/O)C(=O)N2 [Compound 4, 4-bromo-5-methyl-1H-indole-2,3-dione 3-oxime]",effect on VEEV (FIG. 11),VEEV TC-83 [13],VEEV activators
